Data reported in patent US20170014375A1, “PHARMACEUTICAL COMPOSITION COMPRISING EFFECTIVE DOSE OF POMIFERIN FOR TREATING CANCERS” (Macau University of Science and Technology, priority 2015, published 2017).
pIC50: −log10 of the molar value.

Assays:
[1] = test system: Hep3B, HepG2, H1299, MCF-7, A549 cancer cells and normal human hepatocyte (LO2); test: Endogenous LC3 puncta immunofluorescence in cancer and normal cells; type: cell-based; conditions: 10 μM, FIG. 2
Protocol: The detection of endogenous LC3 puncta formation is conducted using immunofluorescence staining method as described below. In brief, pomiferin-treated cancer cells (Hep3B, HepG2, H1299, MCF-7 and A549) or normal human hepatocyte (LO2) on cover slips are fixed with 4% paraformaldehyde (Sigma) for 20 min at room temperature and then rinsed with PBS. Immerse coverslips in methanol at room temperature for 2 min. After ishing with PBS, the cells are then incubated with anti-LC3 (1:200) in TBST (100 mM Tris HCl, pH 7.5, 150 mM NaCl, 0.05% Tween 20 and 5% BSA) overnight at 4. […] The coverslips are then mounted with FluorSave™ mounting media (Calbiochem, San Diego, Calif., USA) for fluorescence imaging and localization of LC3 autophagosomes are captured under the API Delta Vision Live-cell Imaging System (Applied Precision Inc., GE Healthcare Company, Washington, USA). To quantify autophagy, guidelines are followed to monitor autophagy^20, the percentage of cells with punctuate LC3 immunofluorescence staining is calculated by counting the number of the cells showing the punctuate pattern of LC3 fluorescence (>10 dots/cell) in immunofluorescence positive cells over the total number of cells in the same field. A minimum of 1000 cells from randomly selected fields are scored.

[2] = test system: HCT116 p53+/− (heterozygous) isogenic colon cancer cells; test: MTT cytotoxicity assay, HCT116 p53+/−; type: cell-based; conditions: Homo sapiens, HCT-116, 72 h, 3 days, read-out: Means of IC50
Protocol: The test compound of pomiferin is dissolved in DMSO at a final concentration of 100 mmol/L and stored at −20° C. Cytotoxicity is assessed using the 3-(4,5-dimethylthiazol-2-yl)-2,5-diphenyltetrazolium bromide assay as previously described^29. 4000 of drug-resistant HCT-116 p53+/+, HCT-116 p53−/− and HCT-116 p53−/− isogenic colon cancer cells are seeded on 96-well plates per well. After overnight pre-incubation, the cells are exposed to different concentrations of pomiferin (namely […]) for 3 days. Subsequently, 10 μL of MTT reagents is added to each well and incubated at 37° C. for 4 hours, followed by the addition of 100 μL solubilization buffer (10% SDS in 0.01 mol/L HCl) and overnight incubation. Absorbance at 585 nm is determined from each well on the following day. The percentage of cell viability is calculated using the following formula: Cell viability (%)=Cells numbertreated/Cells numberDMSO control×100. Data is obtained from three independent experiments.

HeLa cancer cells = test: Western blot of autophagic marker LC3-II conversion; type: cell-based, human; conditions: 0-15 μM, FIG. 1A
Protocol: After pomiferin treatments in the presence or absence of lysosomal inhibitor 50 nM of Bafilomycin A1 or autophagy inhibitor 5 mM 3-MA, HeLa cancer cells are harvested and lysed in RIPA buffer (Cell Signaling Technologies Inc., Beverly, Mass.). The cell lysates are then resolved by SDS-PAGE. After electrophoresis, the proteins from SDS-PAGE are transferred to nitrocellulose membrane which is then blocked with 5% non-fat dried milk for 60 minutes. The membrane is then incubated with LC3 primary antibodies (1:1000) in TBST overnight at 4° C. After that, the membrane is further incubated with HRP-conjugated secondary antibodies for 60 minutes. Finally, protein bands are visualized by using the ECL Western Blotting Detection Reagents (Invitrogen, Paisley, Scotland, UK).

[3] = test system: MCF-7 (human breast cancer) cells; test: MTT cytotoxicity assay, MCF-7; type: cell-based; conditions: MCF7, 72 h, MCF-7 (Breast), 3 days, read-out: Means of IC50
Protocol: Pomiferin is dissolved in DMSO at a final concentration of 100 mmol/L and stored at −20° C. Cytotoxicity is assessed using the 3-(4,5-dimethylthiazol-2-yl)-2,5-diphenyltetrazolium bromide assay. 4000-8000 HeLa (human cervical cancer), MCF-7 (human breast cancer), HepG2 and Hep3B (human liver cancer), H1299 and A549 (human lung cancer), LNCap (human prostate cancer) and LLC-1 (mouse Lewis lung carcinoma) cells are seeded on 96-well plates per well. After overnight pre-incubation, the cells are exposed to different concentrations of pomiferin ([…]) for 3 days. Subsequently, 10 μL of MTT reagents is added to each well and incubated at 37° C. for 4 hours followed by the addition of 100 μL solubilization buffer (10% SDS in 0.01 mol/L HCl) and overnight incubation. Absorbance at 585 nm is determined from each well the next day. The percentage of cell viability is calculated using the following formula: Cell viability (%)=Cells number treated/Cells number DMSO control×100. Data are obtained from three independent experiments.

Ca2+ ATPase (SERCA1A) = molecular target: T1, Ca2+ ATPase (SERCA1A) (Oryctolagus cuniculus, UniProt P04191); test: Measurement of SERCA activity (enzyme-coupled ATPase assay); type: biochemical; conditions: rabbit skeletal muscle SR membranes; FIG. 5B
T1 construct: (SERCA1A) is prepared from female rabbit hind leg muscle; from tissue; host or cells: female rabbit hind leg (skeletal) muscle, sarcoplasmic reticulum membranes
Protocol: Purified Ca^2+ ATPase (SERCA1A) is prepared from female rabbit hind leg muscle^27. ATPase activity is determined using the enzyme-coupled method utilizing pyruvate kinase and lactate dehydrogenase as previously described in Michelangeli et al. (1990). All SERCA inhibition data are fitted to the allosteric dose versus effect equation using Fig P (Biosoft):
Activity=minimum activity+(maximum activity−minimum activity)/(1+([I]/IC50)P).

T1 sequence (P04191 1-994 isoform P04191-2): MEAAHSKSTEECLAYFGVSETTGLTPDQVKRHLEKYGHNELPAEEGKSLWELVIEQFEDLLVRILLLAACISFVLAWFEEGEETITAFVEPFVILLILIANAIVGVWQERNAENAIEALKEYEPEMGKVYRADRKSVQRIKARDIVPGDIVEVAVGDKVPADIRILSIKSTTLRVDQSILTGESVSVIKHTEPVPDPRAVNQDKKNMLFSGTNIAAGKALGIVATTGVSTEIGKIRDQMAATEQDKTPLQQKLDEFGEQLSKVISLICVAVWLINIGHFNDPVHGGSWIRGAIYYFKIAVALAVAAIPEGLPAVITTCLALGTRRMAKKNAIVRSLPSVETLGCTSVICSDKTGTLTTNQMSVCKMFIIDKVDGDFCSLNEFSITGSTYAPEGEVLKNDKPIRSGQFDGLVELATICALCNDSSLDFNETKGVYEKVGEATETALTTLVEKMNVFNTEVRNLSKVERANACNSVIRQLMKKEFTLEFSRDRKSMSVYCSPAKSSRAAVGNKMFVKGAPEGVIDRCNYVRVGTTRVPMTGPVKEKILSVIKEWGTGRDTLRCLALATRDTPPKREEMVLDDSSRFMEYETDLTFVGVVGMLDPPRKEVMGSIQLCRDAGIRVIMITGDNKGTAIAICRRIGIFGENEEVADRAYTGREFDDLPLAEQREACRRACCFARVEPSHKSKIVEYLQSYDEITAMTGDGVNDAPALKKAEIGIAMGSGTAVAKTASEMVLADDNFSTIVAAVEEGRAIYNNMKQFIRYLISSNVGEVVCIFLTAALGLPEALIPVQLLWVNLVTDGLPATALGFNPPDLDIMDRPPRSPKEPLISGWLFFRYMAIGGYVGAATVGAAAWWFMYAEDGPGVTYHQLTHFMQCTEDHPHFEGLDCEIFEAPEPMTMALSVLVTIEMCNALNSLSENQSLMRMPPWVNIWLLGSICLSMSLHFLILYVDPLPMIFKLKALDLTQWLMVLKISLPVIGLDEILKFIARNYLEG

With `CC(C)=CCc1c2c(c3occ(-c4ccc(O)c(O)c4)c(=O)c3c1O)C=CC(C)(C)O2` [pomiferin] the TRITC-LC3 puncta formation [1] was “induces TRITC-LC3 puncta formation in all tested cancer and normal cells”, the pIC50 [2] was 5.25 and the “autophagic marker LC3-II conversion” value (HeLa cancer cells) was “induced”. For the same compound, the pIC50 [3] was 4.72 and the SERCA1A pump inhibition (Ca2+ ATPase (SERCA1A)) was “inhibited by pomiferin in a dose-dependent manner”.
